Activity calls are given as the source filed them. How the calls were made is not given here.
Tested on: CCRIS mutagenicity, Ames/micronucleus/aberration tests
Assay: CCRIS mutagenicity studies
[1] = Test System: AMES SALMONELLA TYPHIMURIUM, Strain/Indicator: TA98, Metabolic Activation: NONE, Method: STANDARD PLATE
[2] = Test System: AMES SALMONELLA TYPHIMURIUM, Strain/Indicator: TA98, Metabolic Activation: RAT, LIVER, S-9, AROCLOR 1254, Method: STANDARD PLATE
[3] = Test System: AMES SALMONELLA TYPHIMURIUM, Strain/Indicator: TA100, Metabolic Activation: NONE, Method: STANDARD PLATE
[4] = Test System: AMES SALMONELLA TYPHIMURIUM, Strain/Indicator: TA100, Metabolic Activation: RAT, LIVER, S-9, AROCLOR 1254, Method: STANDARD PLATE
[5] = Test System: AMES SALMONELLA TYPHIMURIUM, Strain/Indicator: TA1535, Metabolic Activation: NONE, Method: STANDARD PLATE
[6] = Test System: AMES SALMONELLA TYPHIMURIUM, Strain/Indicator: TA1535, Metabolic Activation: RAT, LIVER, S-9, AROCLOR 1254, Method: STANDARD PLATE
[7] = Test System: AMES SALMONELLA TYPHIMURIUM, Strain/Indicator: TA1537, Metabolic Activation: NONE, Method: STANDARD PLATE
[8] = Test System: AMES SALMONELLA TYPHIMURIUM, Strain/Indicator: TA1537, Metabolic Activation: RAT, LIVER, S-9, AROCLOR 1254, Method: STANDARD PLATE
[9] = Test System: AMES SALMONELLA TYPHIMURIUM, Strain/Indicator: TA98, Metabolic Activation: NONE, Method: PREINCUBATION
[10] = Test System: AMES SALMONELLA TYPHIMURIUM, Strain/Indicator: TA100, Metabolic Activation: NONE, Method: PREINCUBATION
[11] = Test System: AMES SALMONELLA TYPHIMURIUM, Strain/Indicator: TA1535, Metabolic Activation: NONE, Method: PREINCUBATION
[12] = Test System: AMES SALMONELLA TYPHIMURIUM, Strain/Indicator: TA1537, Metabolic Activation: NONE, Method: PREINCUBATION

SMILES: CC(C)N(CC(O)c1ccc(NS(C)(=O)=O)cc1)N=O (stereo not given)
- mutagenic call (Test System: UDS HUMAN HEPATOCYTES, Strain/Indicator: THY INCORP, Metabolic Activation: NONE, Method: AUTORADIOGRAPHY): active; positive
- mutagenic call (Test System: UDS RAT HEPATOCYTES, Strain/Indicator: THY INCORP, Metabolic Activation: NONE, Method: AUTORADIOGRAPHY): active; positive

SMILES: [S]1[S][SbH][S][S][SbH]1
- mutagenic call (Test System: CHINESE HAMSTER OVARY, Strain/Indicator: CHO (HGPRT)/6-THIOGUANINE, Metabolic Activation: NONE): inactive; negative
- mutagenic call (Test System: CHINESE HAMSTER OVARY, Strain/Indicator: CHO (HGPRT)/6-THIOGUANINE, Metabolic Activation: RAT, LIVER, S-9, AROCLOR 1254): inactive; negative

SMILES: NC(=O)[C@@H]1CCCN1C(=O)[C@H](Cc1cnc[nH]1)NC(=O)[C@@H]1CCC(=O)N1
- mutagenic call [1]: inactive; negative
- mutagenic call [2]: inactive; negative
- mutagenic call [3]: inactive; negative
- mutagenic call [4]: inactive; negative
- mutagenic call [5]: inactive; negative
- mutagenic call [6]: inactive; negative
- mutagenic call [7]: inactive; negative
- mutagenic call [8]: inactive; negative

SMILES: CC(C)(c1cc(Br)c(O)c(Br)c1)c1cc(Br)c(O)c(Br)c1
- mutagenic call (Test System: AMES SALMONELLA TYPHIMURIUM, Strain/Indicator: TA98, Metabolic Activation: HAMSTER, LIVER, S-9, AROCLOR 1254 (10%), Method: PREINCUBATION): inactive; negative
- mutagenic call [9]: inactive; negative
- mutagenic call (Test System: AMES SALMONELLA TYPHIMURIUM, Strain/Indicator: TA98, Metabolic Activation: RAT, LIVER, S-9, AROCLOR 1254 (10%), Method: PREINCUBATION): inactive; negative
- mutagenic call (Test System: AMES SALMONELLA TYPHIMURIUM, Strain/Indicator: TA100, Metabolic Activation: HAMSTER, LIVER, S-9, AROCLOR 1254 (10%), Method: PREINCUBATION): inactive; negative
- mutagenic call [10]: inactive; negative
- mutagenic call (Test System: AMES SALMONELLA TYPHIMURIUM, Strain/Indicator: TA100, Metabolic Activation: RAT, LIVER, S-9, AROCLOR 1254 (10%), Method: PREINCUBATION): inactive; negative
- mutagenic call (Test System: AMES SALMONELLA TYPHIMURIUM, Strain/Indicator: TA1535, Metabolic Activation: HAMSTER, LIVER, S-9, AROCLOR 1254 (10%), Method: PREINCUBATION): inactive; negative
- mutagenic call [11]: inactive; negative
- mutagenic call (Test System: AMES SALMONELLA TYPHIMURIUM, Strain/Indicator: TA1535, Metabolic Activation: RAT, LIVER, S-9, AROCLOR 1254 (10%), Method: PREINCUBATION): inactive; negative
- mutagenic call (Test System: AMES SALMONELLA TYPHIMURIUM, Strain/Indicator: TA1537, Metabolic Activation: HAMSTER, LIVER, S-9, AROCLOR 1254 (10%), Method: PREINCUBATION): inactive; negative
- mutagenic call [12]: inactive; negative
- mutagenic call (Test System: AMES SALMONELLA TYPHIMURIUM, Strain/Indicator: TA1537, Metabolic Activation: RAT, LIVER, S-9, AROCLOR 1254 (10%), Method: PREINCUBATION): inactive; negative

SMILES: C=C(C)C(C)=O
- mutagenic call (Test System: AMES SALMONELLA TYPHIMURIUM, Strain/Indicator: TA98, Metabolic Activation: HAMSTER, LIVER, S-9, AROCLOR 1254, Method: STANDARD PLATE): inactive; negative
- mutagenic call [1]: inactive; negative
- mutagenic call [2]: inactive; negative
- mutagenic call (Test System: AMES SALMONELLA TYPHIMURIUM, Strain/Indicator: TA100, Metabolic Activation: HAMSTER, LIVER, S-9, AROCLOR 1254, Method: STANDARD PLATE): inactive; negative
- mutagenic call [3]: inactive; negative
- mutagenic call [4]: inactive; negative
- mutagenic call (Test System: AMES SALMONELLA TYPHIMURIUM, Strain/Indicator: TA1535, Metabolic Activation: HAMSTER, LIVER, S-9, AROCLOR 1254, Method: STANDARD PLATE): inactive; negative
- mutagenic call [5]: inactive; negative
- mutagenic call [6]: inactive; negative
- mutagenic call (Test System: AMES SALMONELLA TYPHIMURIUM, Strain/Indicator: TA1537, Metabolic Activation: HAMSTER, LIVER, S-9, AROCLOR 1254, Method: STANDARD PLATE): inactive; negative
- mutagenic call [7]: inactive; negative
- mutagenic call [8]: inactive; negative
- mutagenic call (Test System: AMES SALMONELLA TYPHIMURIUM, Strain/Indicator: TA1538, Metabolic Activation: HAMSTER, LIVER, S-9, AROCLOR 1254, Method: STANDARD PLATE): inactive; negative
- mutagenic call (Test System: AMES SALMONELLA TYPHIMURIUM, Strain/Indicator: TA1538, Metabolic Activation: NONE, Method: STANDARD PLATE): inactive; negative
- mutagenic call (Test System: AMES SALMONELLA TYPHIMURIUM, Strain/Indicator: TA1538, Metabolic Activation: RAT, LIVER, S-9, AROCLOR 1254, Method: STANDARD PLATE): inactive; negative
- mutagenic call (Test System: Mouse lymphoma, Strain/Indicator: L5178Y (tk+/tk-), Metabolic Activation: None, Method: Suspension/plate): active; positive
- mutagenic call (Test System: Mouse lymphoma, Strain/Indicator: L5178Y (tk+/tk-), Metabolic Activation: Rat, Liver, S-9, Aroclor 1254, Method: Suspension/plate): active; positive

SMILES: Brc1ccccc1
- mutagenic call (End Point: IN VITRO CHROMOSOMAL ABERRATIONS, Test System: CHINESE HAMSTER OVARY CELLS, Metabolic Activation: NONE): inactive; negative
- mutagenic call (End Point: IN VITRO CHROMOSOMAL ABERRATIONS, Test System: CHINESE HAMSTER OVARY CELLS, Metabolic Activation: RAT, LIVER, S-9, AROCLOR 1254): inactive; negative
- mutagenic call (Test System: AMES SALMONELLA TYPHIMURIUM, Strain/Indicator: TA98, Metabolic Activation: HAMSTER, LIVER, S-9, AROCLOR 1254, Method: PREINCUBATION): inactive; negative
- mutagenic call [9]: inactive; negative
- mutagenic call (Test System: AMES SALMONELLA TYPHIMURIUM, Strain/Indicator: TA98, Metabolic Activation: RAT, LIVER, S-9, AROCLOR 1254, Method: PREINCUBATION): inactive; negative
- mutagenic call (Test System: AMES SALMONELLA TYPHIMURIUM, Strain/Indicator: TA100, Metabolic Activation: HAMSTER, LIVER, S-9, AROCLOR 1254, Method: PREINCUBATION): inactive; negative
- mutagenic call [10]: inactive; negative
- mutagenic call (Test System: AMES SALMONELLA TYPHIMURIUM, Strain/Indicator: TA100, Metabolic Activation: RAT, LIVER, S-9, AROCLOR 1254, Method: PREINCUBATION): inactive; negative
- mutagenic call (Test System: AMES SALMONELLA TYPHIMURIUM, Strain/Indicator: TA1535, Metabolic Activation: HAMSTER, LIVER, S-9, AROCLOR 1254, Method: PREINCUBATION): inactive; negative
- mutagenic call [11]: inactive; negative
- mutagenic call (Test System: AMES SALMONELLA TYPHIMURIUM, Strain/Indicator: TA1535, Metabolic Activation: RAT, LIVER, S-9, AROCLOR 1254, Method: PREINCUBATION): inactive; negative
- mutagenic call (Test System: AMES SALMONELLA TYPHIMURIUM, Strain/Indicator: TA1537, Metabolic Activation: HAMSTER, LIVER, S-9, AROCLOR 1254, Method: PREINCUBATION): inactive; negative
- mutagenic call [12]: inactive; negative
- mutagenic call (Test System: AMES SALMONELLA TYPHIMURIUM, Strain/Indicator: TA1537, Metabolic Activation: RAT, LIVER, S-9, AROCLOR 1254, Method: PREINCUBATION): inactive; negative

SMILES: ClCc1cc2cccc3ccc4c5ccccc5cc1c4c32
- mutagenic call [1]: active; positive
- mutagenic call [3]: active; positive

SMILES: O=[N+]([O-])c1ccc2ccc3c4c(cc5ccc1c2c53)CCC=C4
- mutagenic call (Test System: AMES SALMONELLA TYPHIMURIUM, Strain/Indicator: TA98(1,8-DNP6), Metabolic Activation: NONE, Method: STANDARD PLATE): active; positive
- mutagenic call (Test System: AMES SALMONELLA TYPHIMURIUM, Strain/Indicator: TA98(1,8-DNP6), Metabolic Activation: RAT, LIVER, S-9, AROCLOR 1254, Method: STANDARD PLATE): active; positive
- mutagenic call (Test System: AMES SALMONELLA TYPHIMURIUM, Strain/Indicator: TA98(NR), Metabolic Activation: NONE, Method: STANDARD PLATE): active; positive
- mutagenic call (Test System: AMES SALMONELLA TYPHIMURIUM, Strain/Indicator: TA98(NR), Metabolic Activation: RAT, LIVER, S-9, AROCLOR 1254, Method: STANDARD PLATE): active; positive
- mutagenic call [1]: active; positive
- mutagenic call [2]: active; positive
- mutagenic call [3]: inactive; negative
- mutagenic call [4]: active; positive

— PubChem BioAssay AID1259407 (Chemical Carcinogenesis Research Information System (CCRIS), 2018)
